Assay results reported in patent publication US20230285598A1, “SULFOXONIUM YLIDE DERIVATIVES AS PROBES FOR CYSTEINE PROTEASE” (Takeda Pharmaceutical Company Limited, priority 2018, published 2023).
Entries after “also recorded” stand apart in the source; their conditions may differ.

How the values were obtained:
cathepsin X [1] = target: T1, cathepsin X (Mus musculus, UniProt Q9WUU7); test: Probe labeling of living RAW264.7 cells, in-gel fluorescence; assay type: cell-based; set-up: protein lysates prepared from RAW264.7 cells; host or cells: RAW264.7; details: Example 8; 0.1-5 µM for 2 hours
T1 sequence (Q9WUU7 64-306): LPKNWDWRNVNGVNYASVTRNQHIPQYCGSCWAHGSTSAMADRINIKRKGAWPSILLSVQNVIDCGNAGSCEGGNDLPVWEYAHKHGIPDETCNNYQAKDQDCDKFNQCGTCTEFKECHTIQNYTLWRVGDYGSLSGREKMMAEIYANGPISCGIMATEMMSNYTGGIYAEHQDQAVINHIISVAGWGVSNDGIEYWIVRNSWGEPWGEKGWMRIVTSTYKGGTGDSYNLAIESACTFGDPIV
Experimental: AW cells or MDA-MB-231 ^HM cells were plated in 12-well plates. Where indicated, MDV-590 or vehicle was added at 10 µM from a 10 mM DMSO stock for overnight incubation. When the cell density reached 80%, the indicated probes were added at the indicated concentrations from a 1000x DMSO stock and allowed to incubate for the indicated time. Media was then removed and replaced with PBS. The cells were then scraped and transferred to tubes, and lysis and SDS-PAGE analysis were carried out as above, except skipping the probe addition step. […]
In Example 8, sulfoxonium ylide probes as prepared in accordance with Example 1 were applied to live RAW264.7 cells for two hours, in order to examine the potency and permeability of the sulfoxonium ylide probe series in living cells, and the results compared to BMV109.
The sulfoxonium ylide probes (and BMV109) were each added with increasing probe concentrations of 0.1 µM, 0.5 µM, 1 µM and 5 µM for 2 hours. […]

cathepsin X [2] = target: T1, cathepsin X; test: In vivo probe labeling in mice (intravenous), tissues analyzed by fluorescent SDS-PAGE
Experimental: For in vivo labeled tissues, mice were first injected intravenously via the tail vein with sCy5-Nle-SY, BMV109, or sCy5-Nle-AOMK (50 nmol in 100 µl 10% DMSO/PBS or vehicle control). Tissues were harvested and analyzed as above except without further probe addition.
In Example 10, the probe sCy5-Nle-SY, vehicle control/no probe (NP) or BMV109 were injected into mice intravenously. After two hours of circulation, tissues were harvested, lysed, and analyzed for probe labeling by fluorescent SDS-PAGE.
In Example 12, the AOMK probe sCy5-Nle-AOMK was tested in vivo and its labeling in tissues was analyzed. The probe was injected into mice intravenously. After two hours of circulation, tissues were harvested, lysed, and analyzed for probe labeling by fluorescent SDS-PAGE.

cathepsin X [3] = target: T1, cathepsin X; test: Probe labeling of kidney lysates, in-gel fluorescence; assay type: biochemical; details: 0.1-5 µM for 20 minutes
Experimental: issues were harvested from healthy mice and snap frozen. At the time of analysis, lysis buffer was added at 10x volume:weight, and tissues were sonicated on ice. Cleared lysates were labeled with the indicated probe and analyzed as above.
In Example 7, sulfoxonium ylide probes as prepared in accordance with Example 1 were tested in kidney lysates and the results compared to BMV109. The sulfoxonium ylide probes (and BMV109) were each added with increasing probe concentrations of 0.1 µM, 0.5 µM, 1 µM and 5 µM for 20 minutes.

cathepsin X [4] = target: T1, cathepsin X; test: Probe labeling of RAW264.7 cell lysates, SDS-PAGE in-gel fluorescence; assay type: biochemical; set-up: protein lysates prepared from RAW264.7 cells; host or cells: RAW264.7; details: Example 6; 0.01-5 µM for 20 minutes
Experimental: ells were harvested by scraping, washed once with PBS, and resuspended in lysis buffer containing 50 mM citrate [pH 5.5], 0.5% CHAPS, 0.1% Triton X-100, and 4 mM DTT. Cells were incubated on ice for at least 10 minutes with intermittent vortexing followed by centrifugation ([…] at 4° C. or 5 minutes). Cleared supernatants were then transferred to a fresh tube and protein concentration was determined by BCA. Total protein (50 µg) was aliquoted into tubes in a final volume of 20 µl lysis buffer. Where indicated, JPM-OEt or MDV-590 were added from a 100x DMSO stock and incubated at 37° C. or 20 minutes prior to probe addition. The indicated concentration of probe was added from a 100x DMSO stock. Labeling was carried out at 37° C. or 20 minutes (unless otherwise indicated), and the reactions were quenched by the addition of 5x sample buffer (200 mM Tris-Cl [pH 6.8], 8% SDS, 0.04% bromophenol blue, 5% b-mercaptoethanol, and 40% glycerol). Samples were then boiled for five minutes and proteins were resolved on a 15% SDS-PAGE gel. The gels were scanned on a Typhoon 5 flatbed laser scanner at 633/670 nm excitation/emission to detect sCy5 fluorescence.
robe-labeled lysate from above (in sample buffer) was divided into input or pulldown (~50 µg total protein each). The input sample was stored at -20° C. The pulldown sample was diluted in 500 µl IP buffer (PBS [pH 7.4],[…], 1 mM EDTA). Goat anti-cathepsin X antibody (10 µl) was added along with 40 µl slurry of pre-washed Protein A/G agarose beads. Samples were rotated overnight at 4° C. Beads were then washed four times with IP buffer followed by a final wash in 0.9% NaCl. Beads were then resuspended in 2x sample buffer and boiled. The pulldown supernatants, alongside the input samples, were analysed by fluorescent SDS-PAGE as above.
In Example 3, the sulfoxonium ylide probe sCy5-Val-SY was incubated with protein lysates prepared from RAW264.7 cells, an immortalized mouse macrophage line that contains high levels of active cysteine cathepsins (Verdoes et al., 2013). Cells were lysed in citrate buffer (pH 5.5) to provide optimal conditions for cathepsin activation, and the probe was added • at 1 µM for 20 minutes • at various concentrations (0 µM, 0.01 µM, 0.05 µM, 0.1 µM, 0.5 µM or 1 µM) for 20 minutes; or • at 1 µM for varying times (0, 1, 2, 5, 10, 20, and 30 minutes).
Then the lysates were resolved by SDS-PAGE and the gel scanned for sCy5 fluorescence using a flatbed laser scanner.
The labeling profile of sCy5-Val-SY was compared to that of BMV109, the pan-cathepsin probe, by repeating the above experiment using BMV109 as the probe added at 1 µM for 20 minutes.
In Example 6, a small library of sulfoxonium ylide probes with varying amino acids in the P1 position as prepared in accordance with Example 1 was tested in RAW264.7 lysates, and compared to BMV109. Each probe was added with increasing probe concentrations of 0.01 µM, 0.05 µM, 0.1 µM, 0.5 µM, 1 µM and 5 µM for 20 minutes).

[5] = intravenous 50 nmol, two hours of circulation

overall specificity profile in vivo (cathepsin X [2]; intravenous, two hours, compared to BMV109): clearly improved compared to BMV109
potency of labeling in RAW264.7 lysates (cathepsin X [4]): the most potent
Compound: CCCC[C@H](NC(=O)CCCCCN1/C(=C/C=C/C=C/C2=[N+](CC)c3ccc(S(=O)(=O)[O-])cc3C2(C)C)C(C)(C)c2cc(S(=O)(=O)O)ccc21)C(=O)C=S(C)(C)=O [sCy5-Nle-SY]
cathepsins labeled in live RAW264.7 cells (cathepsin X [1]): labeled cathepsin X and S to similar extents and with similar potency
labeling of cathepsin S, B and L in tissues after in vivo administration (cathepsin X [2]; [5]): some labeling of cathepsin S was also observed; also recorded: does not label cathepsin B or L
labeling of cathepsin X in tissues after in vivo administration (cathepsin X [2]; [5]): Labeling of cathepsin X was observed in liver, kidney, colon, stomach, and spleen
potency and specificity of labeling in kidney lysates (cathepsin X [3]): the most potency and specificity for cathepsin X
